IC50 data for 35 compounds are collected here from BindingDB's records for doi:10.7270/Q2J67FB5 (Nmmlsc, 2007).

The assay concerns the target T1, fMet-Leu-Phe receptor (Homo sapiens, UniProt P21462).
T1 sequence (P21462 whole entry): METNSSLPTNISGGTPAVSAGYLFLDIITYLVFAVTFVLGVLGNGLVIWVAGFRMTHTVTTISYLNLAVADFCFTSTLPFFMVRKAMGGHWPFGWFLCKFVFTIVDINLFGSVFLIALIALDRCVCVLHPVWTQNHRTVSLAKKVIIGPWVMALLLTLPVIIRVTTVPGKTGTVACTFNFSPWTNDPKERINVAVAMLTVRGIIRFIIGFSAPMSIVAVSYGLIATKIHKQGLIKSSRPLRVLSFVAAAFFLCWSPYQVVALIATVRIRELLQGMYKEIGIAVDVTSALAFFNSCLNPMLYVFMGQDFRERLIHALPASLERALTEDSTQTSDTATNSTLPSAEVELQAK
The assay is described as follows: formyl peptide receptor binders – dose response (AID 519).
Regarding `Cc1ccc(C(=O)C2C(=O)C(=O)N(CC(C)O)C2c2ccc(N(C)C)cc2)cc1` (stereo not given) [(4E)-5-[4-(dimethylamino)phenyl]-1-(2-hydroxypropyl)-4-[hydroxy(p-tolyl)methylene]pyrrolidine-2,3-quinone], the IC50 (commonly the concentration at which inhibition is half-maximal) was over 66.7 µM.
Then `CCCOc1ccc(C2C(C(=O)c3ccco3)C(=O)C(=O)N2CCCn2ccnc2)cc1` (stereo not given) [3-(furan-2-carbonyl)-4-hydroxy-1-(3-imidazol-1-ylpropyl)-2-(4-propoxyphenyl)-2H-pyrrol-5-one], with over 66.7 µM; and `COCCCN1C(=O)C(=O)C(C(=O)c2ccc(OC)cc2C)C1c1cccnc1` (stereo not given) [(4E)-4-[(4-methoxy-2-methyl-phenyl)-oxidanyl-methylidene]-1-(3-methoxypropyl)-5-pyridin-3-yl-pyrrolidine-2,3-dione], with over 66.7 µM.
For `COc1ccc(C(=O)C2C(=O)C(=O)N(Cc3ccco3)C2c2ccc(OC)cc2OC)cc1` (stereo not given) [(4E)-5-(2,4-dimethoxyphenyl)-1-(2-furanylmethyl)-4-[hydroxy-(4-methoxyphenyl)methylidene]pyrrolidine-2,3-dione] the value was over 66.7 µM; for `O=C1C(=O)N(Cc2ccccc2)C(c2ccncc2)C1C(=O)c1ccco1` (stereo not given) [1-Benzyl-4-(furan-2-carbonyl)-3-hydroxy-5-pyridin-4-yl-1,5-dihydro-pyrrol-2-one], 13.6 µM.
In turn, `Cc1ccc(C2c3c([nH]c(=S)[nH]c3=O)N=C3CC(C)(C)CC(=O)C32)cc1` (stereo not given) [8,8-dimethyl-5-(4-methylphenyl)-2-sulfanylidene-5,7,9,10-tetrahydro-1H-pyrimido[4,5-b]quinoline-4,6-dione] gave an IC50 of 47.9 µM.
Then `O=c1c(C23CC4CC(CC(C4)C2)C3)c(O)n(-c2ccccc2)n1-c1ccccc1` [MLS000526352], with 11.5 µM.
Consider `COc1cc(C2C(C(=O)c3ccco3)C(=O)C(=O)N2CCc2ccccc2)ccc1O` (stereo not given) [3-(furan-2-carbonyl)-4-hydroxy-2-(4-hydroxy-3-methoxyphenyl)-1-(2-phenylethyl)-2H-pyrrol-5-one], for which the IC50 is over 66.7 µM.
Then `CCOc1ccc(C2C(C(=O)c3ccco3)C(=O)C(=O)N2CCCn2ccnc2)cc1` (stereo not given) [2-(4-ethoxyphenyl)-3-(furan-2-carbonyl)-4-hydroxy-1-(3-imidazol-1-ylpropyl)-2H-pyrrol-5-one], with 9.9 µM; and `Cc1cc(N2C(=O)C(=O)C(C(=O)c3ccco3)C2c2cccnc2)no1` (stereo not given) [3-(furan-2-carbonyl)-4-hydroxy-1-(5-methyl-1,2-oxazol-3-yl)-2-pyridin-3-yl-2H-pyrrol-5-one], with over 66.7 µM; and `O=C1CCCC(=O)C1C(C#Cc1ccccc1)C1C(=O)CCCC1=O` [3-hydroxy-2-[1-(2-hydroxy-6-keto-cyclohexen-1-yl)-3-phenyl-prop-2-ynyl]cyclohex-2-en-1-one], with over 66.7 µM.
For `CCOc1ccc(C(=O)C2C(=O)C(=O)N(CC3CCCO3)C2c2ccco2)cc1` (stereo not given) [(4Z)-4-[(4-ethoxyphenyl)-hydroxymethylidene]-5-(2-furanyl)-1-(2-oxolanylmethyl)pyrrolidine-2,3-dione] the value was 32 µM; for `Cc1ccc(C(=O)C2C(=O)C(=O)N(c3cc(C)on3)C2c2cccc(Br)c2)cc1` (stereo not given) [(4E)-5-(3-bromophenyl)-1-(5-methyl-1,2-oxazol-3-yl)-4-[(4-methylphenyl)-oxidanyl-methylidene]pyrrolidine-2,3-dione], over 66.7 µM; for `O=C1C(=O)N(c2ncccn2)C(c2cccc(Cl)c2)C1C(=O)c1ccco1` (stereo not given) [2-(3-chlorophenyl)-3-(furan-2-carbonyl)-4-hydroxy-1-pyrimidin-2-yl-2H-pyrrol-5-one], over 66.7 µM.
Then `COCCCN1C(=O)C(=O)C(C(=O)c2ccco2)C1c1ccc(Br)cc1` (stereo not given) [2-(4-bromophenyl)-3-(furan-2-carbonyl)-4-hydroxy-1-(3-methoxypropyl)-2H-pyrrol-5-one], with 14.7 µM; and `COC(=O)c1[nH]c(C)c(C(=O)C2C(=O)C(=O)N(CCN3CCOCC3)C2c2cccnc2)c1C` (stereo not given) [4-[(E)-hydroxy-[1-[2-(4-morpholinyl)ethyl]-4,5-dioxo-2-(3-pyridinyl)-3-pyrrolidinylidene]methyl]-3,5-dimethyl-1H-pyrrole-2-carboxylic acid methyl ester], with 20.8 µM.
The compound `COC(=O)Cc1n[nH]c2c1C(C1C=CCCC1)C(C#N)C(=N)O2` (stereo not given) [2-[6-amino-5-cyano-4-(1-cyclohex-2-enyl)-2,4-dihydropyrano[2,3-c]pyrazol-3-yl]acetic acid methyl ester] returned an IC50 of over 66.7 µM.
Then `Cc1nc(C)c(C(=O)C2C(=O)C(=O)N(CCCn3ccnc3)C2c2ccc(Cl)cc2)s1` (stereo not given) [2-(4-chlorophenyl)-3-(2,4-dimethyl-1,3-thiazole-5-carbonyl)-4-hydroxy-1-(3-imidazol-1-ylpropyl)-2H-pyrrol-5-one], with over 66.7 µM; and `CC1=C(C(=O)OC(C)C)[C@]2(C(=O)N(CC(N)=O)c3ccccc32)C(C#N)C(=N)O1` (stereo partly drawn) [(3R)-6'-amino-1-(2-amino-2-keto-ethyl)-5'-cyano-2-keto-2'-methyl-spiro[indoline-3,4'-pyran]-3'-carboxylic acid isopropyl ester], with over 66.7 µM; and `COC(=O)c1[nH]c(C)c(C(=O)C2C(=O)C(=O)N(CCCN3CCOCC3)C2c2ccccn2)c1C` (stereo not given) [methyl 4-{[4-hydroxy-1-[3-(4-morpholinyl)propyl]-5-oxo-2-(2-pyridinyl)-2,5-dihydro-1H-pyrrol-3-yl]carbonyl}-3,5-dimethyl-1H-pyrrole-2-carboxylate], with 9.7 µM.
Then `CCOc1cc(C2C(C(=O)c3ccco3)C(=O)C(=O)N2CCc2ccccc2)ccc1O` (stereo not given) [2-(3-ethoxy-4-hydroxyphenyl)-3-(furan-2-carbonyl)-4-hydroxy-1-(2-phenylethyl)-2H-pyrrol-5-one], with over 66.7 µM; and `O=C1C(=O)N(Cc2ccco2)C(c2ccccc2)C1C(=O)c1cccs1` (stereo not given) [1-(2-furanylmethyl)-4-hydroxy-3-[oxo(thiophen-2-yl)methyl]-2-phenyl-2H-pyrrol-5-one], with 35.2 µM.
For `COc1ccc(C2C(C(=O)c3cccs3)C(=O)C(=O)N2c2nnc(C)s2)cc1OC` (stereo not given) [2-(3,4-dimethoxyphenyl)-1-(5-methyl-1,3,4-thiadiazol-2-yl)-4-oxidanyl-3-thiophen-2-ylcarbonyl-2H-pyrrol-5-one] the value was over 66.7 µM; for `Cc1ccc(C2C(C(=O)c3cnn(-c4ccccc4)c3C)C(=O)C(=O)N2CCN2CCOCC2)o1` (stereo not given) [(4Z)-4-[hydroxy-(5-methyl-1-phenyl-4-pyrazolyl)methylidene]-5-(5-methyl-2-furanyl)-1-[2-(4-morpholinyl)ethyl]pyrrolidine-2,3-dione], 23.2 µM; for `CC1Cc2cc(C(=O)C3C(=O)C(=O)N(CCN4CCOCC4)C3c3ccccc3F)ccc2O1` (stereo not given) [(4E)-5-(2-fluorophenyl)-4-[(2-methyl-2,3-dihydro-1-benzofuran-5-yl)-oxidanyl-methylidene]-1-(2-morpholin-4-ylethyl)pyrrolidine-2,3-dione], over 66.7 µM.
Consider `Cc1ccc(C2C(C(=O)c3ccc(Cl)cc3)C(=O)C(=O)N2CC2CCCO2)o1` (stereo not given) [(4Z)-4-[(4-chlorophenyl)-hydroxy-methylene]-5-(5-methyl-2-furyl)-1-(tetrahydrofurfuryl)pyrrolidine-2,3-quinone], for which half-maximal inhibition (IC50) was put at 11.6 µM.
Then `COc1ccc(CCN2C(=O)C(=O)C(C(=O)c3ccco3)C2c2cccs2)cc1OC` (stereo not given) [1-[2-(3,4-Dimethoxy-phenyl)-ethyl]-4-(furan-2-carbonyl)-3-hydroxy-5-thiophen-2-yl-1,5-dihydro-pyrrol-2-one], with 19 µM.
Then `COc1ccc(OC)c(C2C(C(=O)c3cc4ccccc4o3)C(=O)C(=O)N2c2cc(C)on2)c1` (stereo not given) [3-(1-benzofuran-2-carbonyl)-2-(2,5-dimethoxyphenyl)-4-hydroxy-1-(5-methyl-1,2-oxazol-3-yl)-2H-pyrrol-5-one], with 36.6 µM; and `Cc1ccc(C2C(C(=O)c3ccc(Br)cc3)C(=O)C(=O)N2Cc2ccco2)o1` (stereo not given) [(4Z)-4-[(4-bromophenyl)-hydroxy-methylene]-1-(2-furfuryl)-5-(5-methyl-2-furyl)pyrrolidine-2,3-quinone], with over 66.7 µM; and `COc1ccc(OC)c(C2C(C(=O)c3ccccc3)C(=O)C(=O)N2Cc2ccco2)c1` (stereo not given) [(4Z)-5-(2,5-dimethoxyphenyl)-1-(2-furanylmethyl)-4-[hydroxy(phenyl)methylidene]pyrrolidine-2,3-dione], with 3.4 µM.
Then `COc1cc(-n2nc(C)c3c2OC(=N)C(C#N)C3c2ccccc2)c(Cl)c(Br)c1O` (stereo not given) [6-amino-1-(3-bromo-2-chloro-4-hydroxy-5-methoxyphenyl)-3-methyl-4-phenyl-1,4-dihydropyrano[2,3-c]pyrazole-5-carbonitrile], with 32.5 µM; and `Cc1ccc(C(=O)C2C(=O)C(=O)N(CCCn3ccnc3)C2c2ccc(OC(C)C)cc2)o1` (stereo not given) [1-(3-imidazol-1-ylpropyl)-3-(5-methylfuran-2-yl)carbonyl-4-oxidanyl-2-(4-propan-2-yloxyphenyl)-2H-pyrrol-5-one], with over 66.7 µM.
Compound `COc1ccc(C(=O)C2C(=O)C(=O)N(CCN3CCOCC3)C2c2ccc(C)cc2)cc1` (stereo not given) [(4Z)-4-[(4-methoxyphenyl)-oxidanyl-methylidene]-5-(4-methylphenyl)-1-(2-morpholin-4-ylethyl)pyrrolidine-2,3-dione] registered an IC50 of over 66.7 µM.
Then `COCCCN1C(=O)C(=O)C(C(=O)c2ccco2)C1c1ccccc1` (stereo not given) [3-(furan-2-carbonyl)-4-hydroxy-1-(3-methoxypropyl)-2-phenyl-2H-pyrrol-5-one], with 14.5 µM; and `O=C1C(=O)N(Cc2ccccc2)C(c2cccnc2)C1C(=O)c1ccco1` (stereo not given) [1-Benzyl-4-(furan-2-carbonyl)-3-hydroxy-5-pyridin-3-yl-1,5-dihydro-pyrrol-2-one], with 30.5 µM.
